Values quoted from earlier work as cited in patent publication US20090202609A1, “MEDICAL DEVICE WITH COATING COMPOSITION” (priority 2008, published 2009).

Columns and labels:
[1] = systemic
bacteria = details: effective systemic concentration

## NC[C@H]1O[C@H](O[C@H]2[C@H](O)[C@@H](O[C@H]3O[C@H](CO)[C@@H](O)[C@H](N)[C@H]3O)[C@H](N)C[C@@H]2N)[C@H](N)C[C@@H]1O [tobramycin]
[1]
  system-wide toxic concentration: about 400 mcg/ml
bacteria
  effective concentration to actively control bacteria: ≤ 4 µg/mL
